The target of experiment [1] is Gastrin-releasing peptide receptor (Homo sapiens) (UniProt P30550). The experiment is described as follows: Compound up to a conc of 32 uM was tested for displacement of radiolabeled GRP from its receptors on bombesin-responsive human SCLC cell line N592; […].
For experiment [2], the species on record is Rattus norvegicus. Nature of the experiment: Antagonistic activity as a measure of bombesin-induced phosphoinositide turnover in rat pituitary GH3 cells; 1.5-3 uM. In kind it is functional, cell-based.
Experiment [3] concerns the target Gastrin-releasing peptide receptor (Rattus norvegicus, UniProt P52500). The experiment is described as follows: Compound was evaluated for displacement of radiolabeled [I-125]GRP from rat brain receptor; 1.5-3 uM.
The species entered for experiment [4] is Rattus norvegicus. The experiment is described as follows: Agonistic activity up to a conc 30 uM measured as elevation of inositol phosphate production in absence of bombesin in rat pituitary GH3 cells; NA is no measurable agonist activity. It counts as functional, cell-based.

SMILES strings stand for the structures. The source made the active and inactive calls. The rule behind the calls is not given here.

Sequence of Gastrin-releasing peptide receptor (P52500 whole entry): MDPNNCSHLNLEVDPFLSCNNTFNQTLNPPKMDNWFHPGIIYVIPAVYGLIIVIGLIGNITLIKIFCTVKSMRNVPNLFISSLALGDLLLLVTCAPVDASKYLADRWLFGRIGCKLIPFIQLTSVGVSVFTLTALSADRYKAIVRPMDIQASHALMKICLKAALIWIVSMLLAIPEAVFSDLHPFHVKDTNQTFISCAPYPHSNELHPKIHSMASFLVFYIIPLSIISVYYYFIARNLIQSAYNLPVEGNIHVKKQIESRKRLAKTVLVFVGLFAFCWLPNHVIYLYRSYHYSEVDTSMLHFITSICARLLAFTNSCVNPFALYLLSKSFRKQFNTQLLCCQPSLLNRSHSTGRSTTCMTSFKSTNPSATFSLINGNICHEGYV
Sequence of Gastrin-releasing peptide receptor (Homo sapiens) (P30550 whole entry, looked up): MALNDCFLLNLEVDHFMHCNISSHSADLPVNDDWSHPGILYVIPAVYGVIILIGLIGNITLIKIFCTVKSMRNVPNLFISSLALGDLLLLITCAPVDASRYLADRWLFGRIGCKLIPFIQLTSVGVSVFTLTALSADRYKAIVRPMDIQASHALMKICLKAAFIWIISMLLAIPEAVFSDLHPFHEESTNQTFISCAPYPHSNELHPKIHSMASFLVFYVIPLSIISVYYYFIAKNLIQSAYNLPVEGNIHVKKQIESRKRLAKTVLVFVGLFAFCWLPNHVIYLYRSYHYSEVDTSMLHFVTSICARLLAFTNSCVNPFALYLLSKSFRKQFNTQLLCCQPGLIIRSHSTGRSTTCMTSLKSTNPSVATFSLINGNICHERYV

For the molecule `O=C1NC(=O)C2(N1)C(=O)N(Cc1ccc(Cl)c(Cl)c1)c1ncc(Br)cc12` (stereo not drawn), the outcome (in experiment [1]; in the experiment filed under Rattus norvegicus [4]) was inactive. The IC50 (in the experiment filed under Rattus norvegicus [2]; in experiment [3]) was 1.5 µM in each case.
`CCN1C(=O)/C(=C/c2cc(C(C)(C)C)c(O)c(C(C)(C)C)c2)c2cc(OCc3ccccc3C(=O)O)ccc21`: the outcome (in experiment [1]; in the experiment filed under Rattus norvegicus [4]) was inactive. Also, the IC50 (in the experiment listed under Rattus norvegicus [2]; in experiment [3]) was 1.5 µM each time.

In general, IC50 refers to the concentration needed to halve the response being measured.

The record behind these values is ChEMBL document CHEMBL1126408, “CP-70,030 and CP-75,998: The first non-peptide antagonists of bombesin and gastrin releasing peptide” (Bioorg Med Chem Lett, 1992).
